Experimental data from US20240408169A1 (priority 2023, published 2024).
Where two headings read alike, the source gives them in different places. *1 amine or outer side, *2 acyl side, *3 side chain or, on linkers, in order; H or OH if unused. Where a SMILES comes first, the peptide text is derived from it. Bridges are numbered along the chain shown (N, C = ends). [ ]: non-standard residue; d: D form. The star is where a group is joined. X148 = CN([C@@H](Cc1cc(Cl)ccc1-c1ccc(S(C)(=O)=O)nc1)C(=O)[*:2])[*:1]; X197 = CN([C@@H](Cc1cc(Cl)ccc1-c1ccc(=O)[nH]c1)C(=O)[*:2])[*:1]; X166 = CN([C@@H](Cc1cc(F)ccc1C1=CC2COCC(C1)N2)C(=O)[*:2])[*:1]; X203 = CN([C@@H](Cc1cc(Cl)ccc1-c1cnn(C(F)F)c1)C(=O)[*:2])[*:1]; X147 = CCSc1ccc(-c2ccc(Cl)cc2C[C@@H](C(=O)[*:2])N(C)[*:1])cn1; X158 = CCOc1ccc(-c2ccc(Cl)cc2C[C@@H](C(=O)[*:2])N(C)[*:1])cn1; X170 = CN([C@@H](Cc1cc(Cl)ccc1-c1ccc2nonc2c1)C(=O)[*:2])[*:1]; X177 = CN([C@@H](Cc1cc(F)ccc1C1=CC2CCC(C1)N2)C(=O)[*:2])[*:1]; X183 = CN([C@@H](Cc1cc(Cl)ccc1-c1ccc2nncn2c1)C(=O)[*:2])[*:1]; X189 = CN([C@@H](Cc1cc(Cl)ccc1-c1ccc2scnc2c1)C(=O)[*:2])[*:1]; X193 = CN([C@@H](Cc1cc(Cl)ccc1-c1cnc2nonc2c1)C(=O)[*:2])[*:1]; X162 = COc1cncc(-c2ccc(Cl)cc2C[C@@H](C(=O)[*:2])N(C)[*:1])c1; X192 = COc1cccc(-c2ccc(Cl)cc2C[C@@H](C(=O)[*:2])N(C)[*:1])c1; NMehhhLys(Me) = CN([C@@H](CCCCCCCN(C)[*:3])C(=O)[*:2])[*:1]; X125 = CN([C@@H](Cc1cc(Cl)ccc1-c1cncc(F)c1)C(=O)[*:2])[*:1]; cBuCO(3,3-F2-1-CF3) = O=C(C1(C(F)(F)F)CC(F)(F)C1)*; Pro(trans-4-F) = O=C(O)[C@@H]1C[C@@H](F)CN1; Gly(cPr) = N[C@H](C(=O)O)C1CC1

How the values were obtained:
[1] = system: NCI-H1048 cells; assay: MTT proliferation assay, NCI-H1048; assay type: cell-based; conditions: 5 days compound exposure, 1:3 serial dilution starting at 10 μM;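 note: Dose-response in 96-well plates over 8 or 10 concentration points, with exposure spanning 3-4 cell doublings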
[2] = molecular target: T1, CyclinB1/CDK1 (Homo sapiens, UniProt P14635); assay: Fluorescence Polarization (FP) competitive binding assay, Cyclin B1/Cdk1;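 note: fluorescence polarization read after equilibration at room temperature, with IC50 taken from serially diluted dose-response curves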
T1 construct: purchased Eurofins, discovery 14-450

[3] = system: OVCAR3 cells; assay: MTT proliferation assay, OVCAR3; assay type: cell-based; conditions: 5 days compound exposure, 1:3 serial dilution starting at 10 μM;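 note: compound given as an 8- or 10-point series, one day after plating, with exposure covering roughly 3-4 cell doublings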
[4] = molecular target: T2, CyclinE1/CDK2 (Homo sapiens, UniProt P24864); assay: Fluorescence Polarization (FP) competitive binding assay, Cyclin E1/Cdk2;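 note: readings taken after two-hour equilibration at room temperature in HEPES buffer with NaCl, DTT, NP-40 and BSA, IC50 fitted from eight-concentration serial dilution series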
T2 construct: purchased Eurofins, discovery 14-475

[5] = molecular target: T3, CyclinA2/CDK2 (Homo sapiens, UniProt P20248); assay: Fluorescence Polarization (FP) competitive binding assay, Cyclin A2/Cdk2;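 note: plates equilibrated two hours at room temperature before polarization reading, IC50 fitted from eight-concentration compound titration curves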
T3 construct: purchased CRELUX Protein Services

[6] = 10 nM Cyclin B1/Cdk1, 2 nM FAM probe; average of 2-3 independent experiments; read-out: Cyclin B FP IC50
[7] = 10 nM Cyclin E1/Cdk2, 2 nM FAM probe, average of 2-3 independent experiments, read-out: Cyclin E FP IC50
[8] = 8 nM Cyclin A2/Cdk2, 2 nM FAM probe, average of 2-3 independent experiments, read-out: Cyclin A FP IC50

Structure (SMILES)	GI50 [1]	IC50 [2, 6]	GI50 [3]	IC50 [4, 7]	IC50 [5, 8]	IC50 ([2]; read-out: Cyclin B FP IC50; 10 nM Cyclin B1/Cdk1, 2 nM FAM probe; average of 2-3 independent experiments)	IC50 [4]	IC50 [5]
CC(C)C[C@@H]1NC(=O)[C@@H](N(C)C(=O)[C@@H](NC(=O)[C@@H]2C[C@@H](F)CN2C(=O)C2(C(F)(F)F)CC(F)(F)C2)C2CC2)CCCCCCCN(C)C(=O)[C@H](Cc2cc(F)ccc2C2=CC3CCC(C2)N3)N(C)C1=O (stereo partly drawn) [Example 165, (2S,4R)—N-((1S)-2-(((3S,6S,9S)-3-(2-(8-azabicyclo[3.2.1]oct-2-en-3-yl)-5-fluorobenzyl)-6-isobutyl-1,4-dimethyl-2,5,8-trioxo-1,4,7-triazacyclohexadecan-9-yl)(methyl)amino)-1-cyclopropyl-2-oxoethyl)-1-(3,3-difluoro-1-(trifluoromethyl)cyclobutane-1-carbonyl)-4-fluoropyrrolidine-2-carboxamide] ({cBuCO(3,3-F2-1-CF3)}-[Pro(trans-4-F)][Gly(cPr)][NMehhhLys(Me)]L[X177]; lactam 3-C)	340 nM	20 nM	1670 nM	5470 nM	110 nM	–	–	–
CC(C)C[C@@H]1NC(=O)[C@@H](N(C)C(=O)[C@@H](NC(=O)[C@@H]2C[C@@H](F)CN2C(=O)C2(C(F)(F)F)CC(F)(F)C2)C2CC2)CCCCCCCN(C)C(=O)[C@H](Cc2cc(F)ccc2C2=CC3COCC(C2)N3)N(C)C1=O (stereo partly drawn) [Example 166] ({cBuCO(3,3-F2-1-CF3)}-[Pro(trans-4-F)][Gly(cPr)][NMehhhLys(Me)]L[X166]; lactam 3-C)	40 nM	20 nM	100 nM	2300 nM	60 nM	–	–	–
CC(C)C[C@@H]1NC(=O)[C@@H](N(C)C(=O)[C@@H](NC(=O)[C@@H]2C[C@@H](F)CN2C(=O)C2(C(F)(F)F)CC(F)(F)C2)C2CC2)CCCCCCCN(C)C(=O)[C@H](Cc2cc(Cl)ccc2-c2ccc3scnc3c2)N(C)C1=O [Example 169] ({cBuCO(3,3-F2-1-CF3)}-[Pro(trans-4-F)][Gly(cPr)][NMehhhLys(Me)]L[X189]; lactam 3-C)	20 nM	20 nM	30 nM	1090 nM	30 nM	–	–	–
CC(C)C[C@@H]1NC(=O)[C@@H](N(C)C(=O)[C@@H](NC(=O)[C@@H]2C[C@@H](F)CN2C(=O)C2(C(F)(F)F)CC(F)(F)C2)C2CC2)CCCCCCCN(C)C(=O)[C@H](Cc2cc(Cl)ccc2-c2ccc3nonc3c2)N(C)C1=O [Example 170] ({cBuCO(3,3-F2-1-CF3)}-[Pro(trans-4-F)][Gly(cPr)][NMehhhLys(Me)]L[X170]; lactam 3-C)	130 nM	20 nM	200 nM	2220 nM	50 nM	–	–	–
CC(C)C[C@@H]1NC(=O)[C@@H](N(C)C(=O)[C@@H](NC(=O)[C@@H]2C[C@@H](F)CN2C(=O)C2(C(F)(F)F)CC(F)(F)C2)C2CC2)CCCCCCCN(C)C(=O)[C@H](Cc2cc(Cl)ccc2-c2cnc3nonc3c2)N(C)C1=O [Example 171] ({cBuCO(3,3-F2-1-CF3)}-[Pro(trans-4-F)][Gly(cPr)][NMehhhLys(Me)]L[X193]; lactam 3-C)	150 nM	20 nM	210 nM	4210 nM	80 nM	–	–	–
CC(C)C[C@@H]1NC(=O)[C@@H](N(C)C(=O)[C@@H](NC(=O)[C@@H]2C[C@@H](F)CN2C(=O)C2(C(F)(F)F)CC(F)(F)C2)C2CC2)CCCCCCCN(C)C(=O)[C@H](Cc2cc(Cl)ccc2-c2ccc3nncn3c2)N(C)C1=O [Example 178] ({cBuCO(3,3-F2-1-CF3)}-[Pro(trans-4-F)][Gly(cPr)][NMehhhLys(Me)]L[X183]; lactam 3-C)	1180 nM	20 nM	2570 nM	5460 nM	50 nM	–	–	–
CC(C)C[C@@H]1NC(=O)[C@@H](N(C)C(=O)[C@@H](NC(=O)[C@@H]2C[C@@H](F)CN2C(=O)C2(C(F)(F)F)CC(F)(F)C2)C2CC2)CCCCCCCN(C)C(=O)[C@H](Cc2cc(Cl)ccc2-c2ccc(=O)[nH]c2)N(C)C1=O [Example 180] ({cBuCO(3,3-F2-1-CF3)}-[Pro(trans-4-F)][Gly(cPr)][NMehhhLys(Me)]L[X197]; lactam 3-C)	730 nM	20 nM	1220 nM	1860 nM	30 nM	–	–	–
CCSc1ccc(-c2ccc(Cl)cc2C[C@H]2C(=O)N(C)CCCCCCC[C@H](N(C)C(=O)[C@@H](NC(=O)[C@@H]3C[C@@H](F)CN3C(=O)C3(C(F)(F)F)CC(F)(F)C3)C3CC3)C(=O)N[C@@H](CC(C)C)C(=O)N2C)cn1 [Example 181] ({cBuCO(3,3-F2-1-CF3)}-[Pro(trans-4-F)][Gly(cPr)][NMehhhLys(Me)]L[X147]; lactam 3-C)	240 nM	20 nM	420 nM	1580 nM	40 nM	–	–	–
CCOc1ccc(-c2ccc(Cl)cc2C[C@H]2C(=O)N(C)CCCCCCC[C@H](N(C)C(=O)[C@@H](NC(=O)[C@@H]3C[C@@H](F)CN3C(=O)C3(C(F)(F)F)CC(F)(F)C3)C3CC3)C(=O)N[C@@H](CC(C)C)C(=O)N2C)cn1 [Example 182] ({cBuCO(3,3-F2-1-CF3)}-[Pro(trans-4-F)][Gly(cPr)][NMehhhLys(Me)]L[X158]; lactam 3-C)	60 nM	20 nM	130 nM	1170 nM	20 nM	–	–	–
CC(C)C[C@@H]1NC(=O)[C@@H](N(C)C(=O)[C@@H](NC(=O)[C@@H]2C[C@@H](F)CN2C(=O)C2(C(F)(F)F)CC(F)(F)C2)C2CC2)CC=CCCCCNC(=O)[C@H](Cc2cc(F)ccc2-c2cnn(C)c2)N(C)C1=O [Example 195]	10 nM	20 nM	10 nM	180 nM	40 nM	–	–	–
COc1cccc(-c2ccc(Cl)cc2C[C@H]2C(=O)N(C)CCCCCCC[C@H](N(C)C(=O)[C@@H](NC(=O)[C@@H]3C[C@@H](F)CN3C(=O)C3(C(F)(F)F)CC(F)(F)C3)C3CC3)C(=O)N[C@@H](CC(C)C)C(=O)N2C)c1 [Example 197] ({cBuCO(3,3-F2-1-CF3)}-[Pro(trans-4-F)][Gly(cPr)][NMehhhLys(Me)]L[X192]; lactam 3-C)	50 nM	20 nM	100 nM	310 nM	20 nM	–	–	–
CC(C)C[C@@H]1NC(=O)[C@@H](N(C)C(=O)[C@@H](NC(=O)[C@@H]2C[C@@H](F)CN2C(=O)C2(C(F)(F)F)CC(F)(F)C2)C2CC2)CCCCCCCN(C)C(=O)[C@H](Cc2cc(Cl)ccc2-c2cncc(F)c2)N(C)C1=O [Example 198] ({cBuCO(3,3-F2-1-CF3)}-[Pro(trans-4-F)][Gly(cPr)][NMehhhLys(Me)]L[X125]; lactam 3-C)	50 nM	20 nM	50 nM	1450 nM	50 nM	–	–	–
COc1cncc(-c2ccc(Cl)cc2C[C@H]2C(=O)N(C)CCCCCCC[C@H](N(C)C(=O)[C@@H](NC(=O)[C@@H]3C[C@@H](F)CN3C(=O)C3(C(F)(F)F)CC(F)(F)C3)C3CC3)C(=O)N[C@@H](CC(C)C)C(=O)N2C)c1 [Example 199] ({cBuCO(3,3-F2-1-CF3)}-[Pro(trans-4-F)][Gly(cPr)][NMehhhLys(Me)]L[X162]; lactam 3-C)	30 nM	20 nM	50 nM	910 nM	30 nM	–	–	–
CC(C)C[C@@H]1NC(=O)[C@@H](N(C)C(=O)[C@@H](NC(=O)[C@@H]2C[C@@H](F)CN2C(=O)C2(C(F)(F)F)CC(F)(F)C2)C2CC2)CCCCCCCN(C)C(=O)[C@H](Cc2cc(Cl)ccc2-c2cnn(C(F)F)c2)N(C)C1=O [Example 200] ({cBuCO(3,3-F2-1-CF3)}-[Pro(trans-4-F)][Gly(cPr)][NMehhhLys(Me)]L[X203]; lactam 3-C)	40 nM	20 nM	30 nM	890 nM	30 nM	–	–	–
CC(C)C[C@@H]1NC(=O)[C@@H](N(C)C(=O)[C@@H](NC(=O)[C@@H]2C[C@@H](F)CN2C(=O)C2(C(F)(F)F)CC(F)(F)C2)C2CC2)CCCCCCCN(C)C(=O)[C@H](Cc2cc(Cl)ccc2-c2ccc(S(C)(=O)=O)nc2)N(C)C1=O [Example 201] ({cBuCO(3,3-F2-1-CF3)}-[Pro(trans-4-F)][Gly(cPr)][NMehhhLys(Me)]L[X148]; lactam 3-C)	60 nM	–	60 nM	–	–	20 nM	1950 nM	30 nM
